ChEMBL document CHEMBL1772958, “In vivo activity of benzoyl ester clerodane diterpenoid derivatives from Dodonaea polyandra” (2011)
The source made the active and inactive calls. No cut-off for these calls is given here.

Key:
Mus musculus [1] = assay: Antiinflammatory activity against TPA-induced ear edema in mouse assessed as ear thickness at 0.088 to 1.77 umol/ear, sc administered 30 mins after TPA challenge measured after 2 to 48 hrs; format: functional, organism-based
Mus musculus [2] = assay: Antiinflammatory activity against TPA-induced ear edema in mouse assessed as ear thickness at 0.22 umol/ear, topically administered 30 mins after TPA challenge measured after 8 hrs
Mus musculus [3] = assay: Antiinflammatory activity against TPA-induced ear edema in mouse assessed as ear thickness, sc administered 30 mins after TPA challenge measured after 2 to 48 hrs; format: functional, organism-based
Mus musculus [4] = assay: Antiinflammatory activity against TPA-induced ear edema in mouse assessed as ear thickness at 0.023 to 0.91 umol/ear, sc administered 30 mins after TPA challenge measured after 2 to 48 hrs; format: functional, organism-based
Mus musculus [5] = assay: Antiinflammatory activity against TPA-induced ear edema in mouse assessed as ear thickness at 1.83 umol/ear, sc administered 30 mins after TPA challenge measured after 2 to 48 hrs; format: functional, organism-based
Mus musculus [6] = assay: Antiinflammatory activity against TPA-induced ear edema in mouse assessed as ear thickness at 0.91 umol/ear, sc administered 30 mins after TPA challenge measured after 2 to 48 hrs; format: functional
Mus musculus [7] = assay: Antiinflammatory activity against TPA-induced ear edema in mouse assessed as ear thickness at 0.90 umol/ear, sc administered 30 mins after TPA challenge measured after 2 to 48 hrs; format: functional, organism-based

C[C@@]1(CCc2ccoc2)[C@H](COC(=O)c2ccccc2)CC[C@]2(C)C(C(=O)O)=C[C@H](O)C[C@H]12 (relative stereo)
Activity (Mus musculus [1]): Active
inhibition (INH) (Mus musculus [2]): 70.2%
Activity (Mus musculus [3]): Active

C[C@@]1(CCc2ccoc2)[C@H](COC(=O)c2ccccc2)CC[C@]2(C)C(C(=O)O)=CCC[C@H]12 (relative stereo)
Activity (Mus musculus [4]): inactive
Activity (Mus musculus [5]): Active

C[C@@H]1CC[C@]2(C)C(C(=O)O)=C[C@H](OC(=O)c3ccccc3)C[C@@H]2[C@]1(C)CCc1ccoc1 (relative stereo)
inhibition (INH) (Mus musculus [6]): 76.4%

CCC(=O)OCC(=O)[C@@]1(OC(=O)CC)[C@@H](C)C[C@H]2[C@@H]3CCC4=CC(=O)C=C[C@]4(C)[C@@]3(F)[C@@H](O)C[C@@]21C
inhibition (Mus musculus [7]): Active
